Assay results reported in patent US20240115881A1, “METHODS AND SYSTEMS FOR DETERMINING THE DISTRIBUTION OF RADIATION DOSE AND RESPONSE” (priority 2022, published 2024).
Several values for one entry are separate records, joined by “and”; a condition that tells them apart may be missing. Equal values may be shown once. Read-outs that look alike come from different tables or passages of the source.

How the values were obtained:
[1] = system: Chinese hamster V79 lung fibroblasts; test: clonogenic survival assay (colony formation) after single-agent treatment; type: cell-based; details: for surviving fraction for drug alone: 0.63 μM daunomycin or 2.50 μM doxorubicin, 2.5 h; for mean lethal concentration: extracellular concentration for 37% survival, 2.5 h exposure
Description: The surviving fraction SF of cells exposed to the agent was assessed with a clonogenic survival assay and plotted as a function of several different variables including extracellular concentration, <I>net, absorbed dose (Gy), and mean cellular activity (mBq/cell). The resulting survival curves were of a 1- or 2-component exponential form. Analogous to the cellular activity and absorbed dose required to achieve 37% survival, a37 and D37, the net mean lethal fluorescence intensity of the drug required to achieve 37% survival, <I>net37 , can be defined similarly and obtained from plots of SF versus <I>net.
To evaluate ^210Po cytotoxicity, the surviving fraction was plotted as a function of EuTc-citrate net MFI, mean cellular uptake of ^210Po, and mean absorbed dose to the nucleus (FIG. 4A). […] The relationships between cell survival and EuTc-citrate net MFI or cellular ^210Po activity can be described by an exponential function SF=exp(−A/A1). The relationship between cell survival and drug net MFI (or extracellular concentration) for daunomycin and doxorubicin are illustrated in FIGS. 4B and 4C, respectively. For both drugs, clonogenic survival and cellular drug uptake (as determined by net MFI) are related via two component exponential functions SF=b exp(−A/A1)+(1-b) exp(−A/A2). A is the intracellular activity of ^210Po-citrate, absorbed dose to the cell nucleus, or drug concentration. Least squares fits of the survival data to this function were performed. The variable b is a fitted parameter.
Chinese hamster V79 lung fibroblasts were used. Two different formulations of minimum essential media (MEMA and MEMB) were used, as known in the literature. All media and supplements were Gibco (Carlsbad, CA), including fetal calf serum (catalog no. 10437, lot no. 539574). For routine maintenance, cells were grown as monolayers in Falcon 25-cm^2 tissue culture flasks (BD, Franklin Lakes, NJ, catalog no. 353082) at 37° C., 5% CO2-95% air, and subcultured twice weekly. For experiments, V79 cells (passage 4-11) were transferred into Falcon 225-cm^2 flasks (BD, catalog no. 353138), and were used upon reaching 80%-90% confluence.
Cells grown in 225-cm^2 flasks were trypsinized (0.25% trypsin, Gibco, catalog no. 25200-056), and MEMB was added to obtain 2×10^6 cells/mL. Aliquots of 1 mL were placed in Falcon 17×100 mm polypropylene tubes (BD, catalog no. 352018) and placed on a rocker-roller (Thermo Fisher, Fair Lawn, NJ) for 3 hours at 37° C. with 5% CO2 and 95% air. After this conditioning period, cells were treated with drug or radiochemical. Cell cultures were exposed to radiochemical and drugs for 0.5 and 2.5 h, respectively.
^210PoCl4 in 2 mol/L HCI was obtained at 370 MBq/mL from Eckert&Ziegler Isotope Products (Valencia, CA, catalog no. 6310). ^210Po-citrate was prepared as follows. Briefly, PoCl4 solution was mixed with 1 mol/L sodium citrate in the ratio of 1:7 (final pH 5.8), and was diluted with MEMB to a volume of 4 mL (final pH 6.9). One milliliter of MEMB containing 210Po-citrate was added to the 1 mL of conditioned V79 cultures (2×10^6 cells/mL), to arrive at a concentration of 0-250 kBq/mL (pH 6.9-7.0). After incubating for 30 min, the cells were washed 2× with MEMB, resuspended in 2 mL of MEMB, and incubated on a rocker-roller for 2.5 h to simulate concomitant drug exposure. The cells were resuspended in a 5 mL of MEMB, passed 5× through a needle, and counted with a Beckman Coulter Model Z2 (Brea, CA). Aliquots (500 μL) of the cell suspension were transferred to vials, mixed with 5 mL Ecolume (MP Biomedical, Solon, OH, catalog no. 882470), and counted with a Beckman Coulter LS6500, and the mean activity per cell was determined (efficiency, 50% as per prior studies). Aliquots of about 5×10^5 cells were counted in triplicate for ^210Po activity and the cpm ranged from 10^3-10^5. The triplicate measurements kept statistical variations to a minimum. […]

V79 cells [2] = test: cellular uptake by flow cytometry (fluorescence intensity per cell, MFI); type: cell-based, Chinese hamster; details: linear least squares fit; for slope of net MFI versus extracellular drug concentration, low concentrations: Cdauno<0.6 μmol/L, Cdoxo<1 μmol/L; for slope of net MFI versus extracellular drug concentration, high concentrations: Cdauno>0.6 μmol/L (+1161), Cdoxo>1 μmol/L (+29)
Description: Briefly, flow cytometry was used to quantify their mean fluorescence intensity (MFI) per cell, <I>, as a function of the concentration of the agent in the cell culture medium. The net mean fluorescence intensities per cell, <I>net, were determined by subtracting control autofluorescence <I>control, according to the following equation: […]
^210Po-Citrate. The uptake of ^210Po-citrate was determined on a cell-by-cell basis by flow cytometric techniques, using ^210Po-free citrate. Briefly, V79 cells (2×10^6 cells/mL) were treated with 0-3 mmol/L of citrate and incubated on a rocker-roller as described earlier. Cellular uptake of citrate was tracked using an europium tetracycline (EuTc) conjugate. Samples were washed 2× with 10 mmol/L MOPS buffer (Sigma, St. Louis, catalog no. M3183), after a 30 min exposure to citrate. The cells were resuspended in 1 mL of MOPS buffer containing EuTc (Sigma, catalog nos. 203254 for Eu and T7660 for Tc), transferred into 7 ml polystyrene flow cytometry tubes (BD, catalog no. 352054), and were incubated at room temperature (˜22° C.) in the dark for 30 min. The final concentration of EuTc was 100 μmol/L. EuTc forms a ternary complex with citrate (EuTc-citrate) which is excitable at 488 nm, and its emission can be captured within the wavelengths transmitted by the 610/20 filter. After washing 2× with MOPS buffer, the samples were resuspended in 1 mL of MOPS buffer, passed 5× through a 21-gauge needle, and were analyzed by flow cytometry using an LSR II flow cytometer (BD), equipped with a 488 nm laser. Cellular incorporation of citrate, expressed in terms of the fluorescence intensity per cell or mean fluorescence intensity (MFI) of EuTc-citrate, was used as a surrogate measure cellular uptake of ^210Po-citrate.
To determine the cellular uptake of daunomycin and doxorubicin, the cells were treated with 0-10 μmol/L of each drug in MEMB and incubated on a rocker-roller for 2.5 h. The cells were washed 2× with phosphate buffered saline (PBS), resuspended in 1 mL of PBS, passed 5× through a needle, and were immediately subjected to flow cytometric analysis. The 488 nm laser was used to excite intracellular daunomycin and doxorubicin, and the emission spectra were captured within the wavelengths transmitted by the 575/26 and 530/30 filters, respectively. Cellular incorporation of drugs was also expressed as MFI.

V79 cells [3] = test: clonogenic survival after combined treatment with 210Po-citrate and a chemotherapy drug; type: cell-based, Chinese hamster; details: for effect on radiotoxicity of 210Po-citrate α-particles: 0.63 μM daunomycin or 2.50 μM doxorubicin plus graded 210Po-citrate, corrected for drug toxicity
Description: (§1) ^210PoCl4 in 2 mol/L HCI was obtained at 370 MBq/mL from Eckert&Ziegler Isotope Products (Valencia, CA, catalog no. 6310). ^210Po-citrate was prepared as follows. Briefly, PoCl4 solution was mixed with 1 mol/L sodium citrate in the ratio of 1:7 (final pH 5.8), and was diluted with MEMB to a volume of 4 mL (final pH 6.9). One milliliter of MEMB containing 210Po-citrate was added to the 1 mL of conditioned V79 cultures (2×10^6 cells/mL), to arrive at a concentration of 0-250 kBq/mL (pH 6.9-7.0). After incubating for 30 min, the cells were washed 2× with MEMB, resuspended in 2 mL of MEMB, and incubated on a rocker-roller for 2.5 h to simulate concomitant drug exposure. The cells were resuspended in a 5 mL of MEMB, passed 5× through a needle, and counted with a Beckman Coulter Model Z2 (Brea, CA). Aliquots (500 μL) of the cell suspension were transferred to vials, mixed with 5 mL Ecolume (MP Biomedical, Solon, OH, catalog no. 882470), and counted with a Beckman Coulter LS6500, and the mean activity per cell was determined (efficiency, 50% as per prior studies). Aliquots of about 5×10^5 cells were counted in triplicate for ^210Po activity and the cpm ranged from 10^3-10^5. The triplicate measurements kept statistical variations to a minimum. Each sample was serially diluted and plated in Falcon 60×15 mm tissue culture dishes for colony formation. Cultures were incubated for 7 days, and the colonies were fixed in 95% ethanol, stained with 0.01% Amido Black, washed in tap-water, air-dried, and counted.
After conditioning, the cell cultures were treated with daunomycin (Sigma, catalog no. D8809) or doxorubicin (Sigma, catalog no. 44583) to a final concentration of 0-10 μmol/L in MEMB. The tubes were returned to the rocker-roller for 2.5 h. The cells were then processed for colony formation as described above.
To evaluate cytotoxicity of combined treatment of V79 cells with ^210Po-citrate and daunomycin, or ^210Po-citrate and doxorubicin, the surviving fraction of clonogens was plotted as a function of mean cellular uptake of ^210Po (FIG. 9) and as a function of mean absorbed dose to the cell nucleus. When cells were only treated with ^210Po-citrate, the survival curve can be described by a 1-component exponential function. When cells were concomitantly treated with a single drug concentration and varying amounts of ^210Po-citrate, the dose-response curves followed a 2-component exponential function. The data corresponding to the combined treatments were then corrected for drug toxicity, by dividing the surviving fraction for each datum point by the surviving fraction for drug alone (SF=0.10), and replotted in FIG. 9. Both of the corrected cell survival curves emerged below those obtained for ^210Po-citrate alone.

[4] = system: MDA-MB-468 human breast cancer cell line grown as spheroids; details: cited from earlier work
V79 cells [5] = test: cellular 210Po activity, biologic clearance and cellular dosimetry (liquid scintillation counting); type: cell-based, Chinese hamster; details: for intracellular 210Po activity: corresponding to 0.1 mmol/L citrate
Description: The absorbed dose to the cell nucleus was determined as known in the art. Since cells were treated with ^210Po-citrate as a single-cell suspension and were subsequently seeded for colony formation, the small contribution of cross-irradiation from neighboring cells in the colony can be ignored because it is essentially counterbalanced by the reduction in self-dose caused by flattening of cells during the colony forming period. The data was least-squares fitted to obtain a mean biologic half-time of 11.6 h. […] This Tc, the maintenance period of 2.5 h, the subcellular distribution of ^210Po-citrate (28% nucleus, 72% cytoplasm) for V79 cells and published S values, were used to calculate a mean absorbed dose to the cell nucleus of 5.8 Gy/mBq of ^210Po incorporated into the cell.
as §1
To determine the biologic clearance of ^210Po from the cells, 4×10^6 cells/mL were treated with ^210Pocitrate as described above. After two washes with MEMB, the cells were resuspended in 5 mL of MEMB, passed 5× through a needle, and Coulter counted. Aliquots of 500 μL of cells were transferred to vials and mixed with Ecolume. The remaining cell suspension was plated into 25-cm^2 flasks (1.0, 0.5, 0.5, 0.2 and 0.2×10^6 cells/flask). The cultures were harvested after 24, 48, 72, and 96 h, respectively. Each sample was processed for cell counting and liquid scintillation counting as described. All vials were counted after the last harvest. The ratio of cellular activity at each time point to that immediately after treatment was calculated and plotted.

[6] = system: Chinese hamster V79 lung fibroblasts; details: obtained previously, older S values; cited from earlier work
[7] = 0.63 μM daunomycin + 210Po-citrate

COc1cccc2c1C(=O)c1c(O)c3c(c(O)c1C2=O)C[C@@](O)(C(=O)CO)C[C@@H]3O[C@H]1C[C@H](N)[C@H](O)[C@H](C)O1 [doxorubicin]
surviving fraction for drug alone [1]: 0.10
mean lethal concentration ([1]; V79 cells): 1.26 µmol/L
slope of net MFI versus extracellular drug concentration, low concentrations (V79 cells [2]): 61 (μmol/L)^−1
slope of net MFI versus extracellular drug concentration, high concentrations (V79 cells [2]): 40 (μmol/L)^−1
effect on radiotoxicity of 210Po-citrate α-particles (V79 cells [3]): enhance the radiotoxicity of α-particles
dose dependence of the increased kill (V79 cells [3]; 2.50 μM doxorubicin + 210Po-citrate): dose-dependent increase

111In-DTPA-human epidermal growth factor [^111In-EGF]
activity distribution, cell surface ([4]; 24 h treatment): 62%
activity distribution, cytoplasm ([4]; 24 h treatment): 22%
activity distribution, nucleus ([4]; 24 h treatment): 16%
distribution of 111In in the spheroid ([4]; after a 24-h treatment): fully internalized
penetration into the spheroid ([4]; after a 1 h treatment): ~20 μm
distribution of 111In in the spheroid ([4]; treated for 1 h): accumulated mainly on the periphery of the spheroid

COc1cccc2c1C(=O)c1c(O)c3c(c(O)c1C2=O)C[C@@](O)(C(C)=O)C[C@@H]3O[C@H]1C[C@H](N)[C@H](O)[C@H](C)O1 [daunomycin]
surviving fraction for drug alone [1]: 0.10
mean lethal concentration ([1]; V79 cells): 0.24 µmol/L
lethality relative to doxorubicin ([1]; low extracellular concentrations, V79 cells): ~5 ×
slope of net MFI versus extracellular drug concentration, low concentrations (V79 cells [2]): 5922 (μmol/L)^−1
slope of net MFI versus extracellular drug concentration, high concentrations (V79 cells [2]): 2480 (μmol/L)^−1
absorbed dose beyond which the enhancement was independent of dose (V79 cells [3]; [7]): about 0.5 Gy
cellular activity beyond which the enhancement was independent of dose (V79 cells [3]; [7]): ~0.09 mBq/cell
effect on radiotoxicity of 210Po-citrate α-particles (V79 cells [3]): enhance the radiotoxicity of α-particles

^210Po-citrate
cell kill at this activity ([1]; 0.1 mmol/L citrate): no significant cell kill
atoms of 210Po corresponding to the mean lethal uptake ([1]; 0.21 mBq/cell): about 3600 atoms
uptake giving the mean lethal absorbed dose ([1]; V79 cells): 0.21 mBq/cell
mean lethal absorbed dose ([1]; absorbed dose to the cell nucleus, V79 cells): 1.2 Gy
cell killing observed ([1]; over the range of cellular activities employed): less than 2 logs
subcellular distribution, cytoplasm (V79 cells [5]; V79 cells): 72%
subcellular distribution, nucleus (V79 cells [5]; V79 cells): 28%
mean biologic half-time (V79 cells [5]; clearance of 210Po from V79 cells): 11.6 h
intracellular 210Po activity (V79 cells [5]): 0.03 mBq/cell
intracellular 210Po activity (V79 cells [5]; listed as 210Po): 0.03 mBq/cell and ~0.02 mBq/cell
effective half-time Te (V79 cells [5]; from biologic half-time and physical half-life of 138 d): 11.6 h
former value of mean lethal dose [6]: 0.7 Gy
